In PubChem BioAssay (NCI):
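Results reflect a 48-hour exposure of cells in 96-well plates to compound at five concentrations. GI50 is the concentration that inhibits growth by half. The concentration for full growth arrest is given as TGI.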

Key:
Test in all cases: inhibition of tumour cell growth, NCI panel, 48 h
ACHN renal = tested on: ACHN renal
HCT-15 colon = tested on: HCT-15 colon
HL-60(TB) leukemia = tested on: HL-60(TB) leukemia
MCF7 breast = tested on: MCF7 breast
RPMI-8226 leukemia = tested on: RPMI-8226 leukemia
MDA-MB-231 breast = tested on: MDA-MB-231 breast
SK-OV-3 ovarian = tested on: SK-OV-3 ovarian
MALME-3M melanoma = tested on: MALME-3M melanoma
COLO 205 colon = tested on: COLO 205 colon
OVCAR-5 ovarian = tested on: OVCAR-5 ovarian
A498 renal = tested on: A498 renal
SNB-75 CNS = tested on: SNB-75 CNS
HCC-2998 colon = tested on: HCC-2998 colon
786-0 renal = tested on: 786-0 renal
SN12C renal = tested on: SN12C renal
SK-MEL-2 melanoma = tested on: SK-MEL-2 melanoma
M14 melanoma = tested on: M14 melanoma
SF-295 CNS = tested on: SF-295 CNS
MDA-MB-435 = tested on: MDA-MB-435
HCT-116 colon = tested on: HCT-116 colon
UACC-62 melanoma = tested on: UACC-62 melanoma
SK-MEL-28 melanoma = tested on: SK-MEL-28 melanoma
OVCAR-3 ovarian = tested on: OVCAR-3 ovarian
NCI-H226 lung = tested on: NCI-H226 lung
NCI-H522 lung = tested on: NCI-H522 lung
DU-145 prostate = tested on: DU-145 prostate
T-47D breast = tested on: T-47D breast
HS 578T breast = tested on: HS 578T breast
SW-620 colon = tested on: SW-620 colon
LOX IMVI melanoma = tested on: LOX IMVI melanoma
TK-10 renal = tested on: TK-10 renal
UACC-257 melanoma = tested on: UACC-257 melanoma
A549 NSCLC = tested on: A549 NSCLC
OVCAR-4 ovarian = tested on: OVCAR-4 ovarian
MOLT-4 leukemia = tested on: MOLT-4 leukemia
IGROV1 ovarian = tested on: IGROV1 ovarian
CAKI-1 renal = tested on: CAKI-1 renal
SF-539 CNS = tested on: SF-539 CNS
BT-549 breast = tested on: BT-549 breast
U251 CNS = tested on: U251 CNS
SK-MEL-5 melanoma = tested on: SK-MEL-5 melanoma
SNB-19 CNS = tested on: SNB-19 CNS
NCI/ADR-RES ovarian = tested on: NCI/ADR-RES ovarian
RXF 393 renal = tested on: RXF 393 renal
CCRF-CEM leukemia = tested on: CCRF-CEM leukemia
NCI-H460 lung = tested on: NCI-H460 lung
K-562 leukemia = tested on: K-562 leukemia
SR leukemia = tested on: SR leukemia
HOP-92 NSCLC = tested on: HOP-92 NSCLC
EKVX NSCLC = tested on: EKVX NSCLC
OVCAR-8 ovarian = tested on: OVCAR-8 ovarian
PC-3 prostate = tested on: PC-3 prostate
UO-31 renal = tested on: UO-31 renal
SF-268 CNS = tested on: SF-268 CNS
HOP-62 NSCLC = tested on: HOP-62 NSCLC
KM12 colon = tested on: KM12 colon
NCI-H23 lung = tested on: NCI-H23 lung

## Cc1cc(Cl)n2c(nc3ccccc32)c1C#N
ACHN renal
  GI50: 567 nM
  TGI: 1840 nM
HCT-15 colon
  GI50: 530 nM
  TGI: 4120 nM
HL-60(TB) leukemia
  GI50: 241 nM
  TGI: 1090 nM
MCF7 breast
  GI50: 158 nM
  TGI: 2300 nM
RPMI-8226 leukemia
  GI50: 231 nM
  TGI: 2450 nM
MDA-MB-231 breast
  GI50: 649 nM
  TGI: 4580 nM
SK-OV-3 ovarian
  GI50: 3810 nM
  TGI: 15600 nM
MALME-3M melanoma
  GI50: 858 nM
  TGI: 2630 nM
COLO 205 colon
  GI50: 296 nM
  TGI: 803 nM
OVCAR-5 ovarian
  GI50: 830 nM
  TGI: 10800 nM
A498 renal
  GI50: 4180 nM
  TGI: 17700 nM
SNB-75 CNS
  GI50: 1330 nM
  TGI: 8530 nM
HCC-2998 colon
  GI50: 727 nM
  TGI: 2310 nM
786-0 renal
  GI50: 768 nM
  TGI: 6480 nM
SN12C renal
  GI50: 499 nM
  TGI: 8330 nM
SK-MEL-2 melanoma
  GI50: 396 nM
  TGI: 2250 nM
M14 melanoma
  GI50: 395 nM
  TGI: 2040 nM
SF-295 CNS
  GI50: 521 nM
  TGI: 4910 nM
MDA-MB-435
  GI50: 327 nM
  TGI: 1600 nM
HCT-116 colon
  GI50: 39.3 nM
  TGI: 1400 nM
UACC-62 melanoma
  GI50: 1140 nM
  TGI: 3660 nM
SK-MEL-28 melanoma
  GI50: 1400 nM
  TGI: 6340 nM
OVCAR-3 ovarian
  GI50: 583 nM
  TGI: 1860 nM
NCI-H226 lung
  GI50: 1540 nM
  TGI: 10000 nM
NCI-H522 lung
  GI50: 235 nM
  TGI: 1220 nM
DU-145 prostate
  GI50: 339 nM
  TGI: 1200 nM
T-47D breast
  GI50: 718 nM
  TGI: 2300 nM
HS 578T breast
  GI50: 1020 nM
  TGI: 23400 nM
SW-620 colon
  GI50: 55 nM
  TGI: 1790 nM
LOX IMVI melanoma
  GI50: 260 nM
  TGI: 1350 nM
TK-10 renal
  GI50: 898 nM
  TGI: 10900 nM
UACC-257 melanoma
  GI50: 727 nM
  TGI: 4800 nM
A549 NSCLC
  GI50: 385 nM
  TGI: 7430 nM
OVCAR-4 ovarian
  GI50: 971 nM
  TGI: 3430 nM
MOLT-4 leukemia
  GI50: 1060 nM
  TGI: 22800 nM
IGROV1 ovarian
  GI50: 414 nM
  TGI: 1820 nM
CAKI-1 renal
  GI50: 282 nM
  TGI: 1410 nM
SF-539 CNS
  GI50: 576 nM
  TGI: 7860 nM
BT-549 breast
  GI50: 473 nM
  TGI: 2280 nM
U251 CNS
  GI50: 482 nM
  TGI: 3170 nM
SK-MEL-5 melanoma
  GI50: 573 nM
  TGI: 3450 nM
SNB-19 CNS
  GI50: 2440 nM
  TGI: 15600 nM
NCI/ADR-RES ovarian
  GI50: 847 nM
  TGI: 8740 nM
RXF 393 renal
  GI50: 854 nM
  TGI: 2660 nM
CCRF-CEM leukemia
  GI50: 48.5 nM
NCI-H460 lung
  GI50: 600 nM
  TGI: 8900 nM
K-562 leukemia
  GI50: 256 nM
  TGI: 61300 nM
SR leukemia
  GI50: 348 nM
  TGI: 24200 nM
HOP-92 NSCLC
  GI50: 494 nM
  TGI: 1620 nM
EKVX NSCLC
  GI50: 7840 nM
  TGI: 24800 nM
OVCAR-8 ovarian
  GI50: 597 nM
  TGI: 11900 nM
PC-3 prostate
  GI50: 383 nM
  TGI: 1600 nM
UO-31 renal
  GI50: 333 nM
  TGI: 1680 nM
SF-268 CNS
  GI50: 460 nM
  TGI: 11400 nM
HOP-62 NSCLC
  GI50: 572 nM
  TGI: 3450 nM
KM12 colon
  GI50: 341 nM
  TGI: 1440 nM
NCI-H23 lung
  GI50: 422 nM
  TGI: 2550 nM
